Patent US20090099094A1, “Use of Somatostatin Agonists to Treat Medullary Thyroid Carcinoma” (priority 2007, published 2009)
pKi: −log10 of the molar value. Square brackets hold non-standard residues; d marks the D form. Peptide text beside a SMILES is read from it. Tic = O=C(O)[C@@H]1Cc2ccccc2CN1; Abu = CC[C@H](N)C(=O)O

Legend:
SSTR1 = SSTR1 (Homo sapiens, UniProt P30872); test: SSTR receptor binding affinity (Ki), SSTR1; conditions: read-out: SSTR Specificity Ki SSTR1
SSTR2 = SSTR2 (Homo sapiens, UniProt P30874); test: SSTR receptor binding affinity (Ki), SSTR2; conditions: read-out: SSTR Specificity Ki SSTR2
Sequence of SSTR2 (P30874 whole entry): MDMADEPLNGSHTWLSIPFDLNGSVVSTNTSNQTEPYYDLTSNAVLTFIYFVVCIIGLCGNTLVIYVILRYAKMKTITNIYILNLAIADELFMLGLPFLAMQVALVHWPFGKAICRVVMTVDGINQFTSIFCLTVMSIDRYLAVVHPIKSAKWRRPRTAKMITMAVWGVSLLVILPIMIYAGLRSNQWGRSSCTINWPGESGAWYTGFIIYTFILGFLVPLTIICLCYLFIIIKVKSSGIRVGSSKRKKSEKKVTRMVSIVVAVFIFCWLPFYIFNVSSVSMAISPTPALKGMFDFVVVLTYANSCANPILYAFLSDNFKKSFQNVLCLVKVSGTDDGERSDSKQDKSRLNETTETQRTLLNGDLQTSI

SSTR3 = SSTR3 (Homo sapiens, UniProt P32745); test: SSTR receptor binding affinity (Ki), SSTR3; conditions: read-out: SSTR Specificity Ki SSTR3
Sequence of SSTR3 (P32745 whole entry): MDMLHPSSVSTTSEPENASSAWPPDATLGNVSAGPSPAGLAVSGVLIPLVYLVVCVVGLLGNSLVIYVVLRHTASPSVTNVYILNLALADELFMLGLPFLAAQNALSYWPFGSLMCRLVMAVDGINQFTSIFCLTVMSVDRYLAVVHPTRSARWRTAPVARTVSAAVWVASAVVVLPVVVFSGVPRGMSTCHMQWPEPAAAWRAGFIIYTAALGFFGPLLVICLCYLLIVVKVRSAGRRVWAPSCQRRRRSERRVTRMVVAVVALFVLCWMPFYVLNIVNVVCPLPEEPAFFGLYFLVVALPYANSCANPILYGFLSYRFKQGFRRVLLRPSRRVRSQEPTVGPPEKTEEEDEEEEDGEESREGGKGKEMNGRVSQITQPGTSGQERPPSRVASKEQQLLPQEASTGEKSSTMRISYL

SSTR4 = SSTR4 (Homo sapiens, UniProt P31391); test: SSTR receptor binding affinity (Ki), SSTR4; conditions: read-out: SSTR Specificity Ki SSTR4
Sequence of SSTR4 (P31391 whole entry): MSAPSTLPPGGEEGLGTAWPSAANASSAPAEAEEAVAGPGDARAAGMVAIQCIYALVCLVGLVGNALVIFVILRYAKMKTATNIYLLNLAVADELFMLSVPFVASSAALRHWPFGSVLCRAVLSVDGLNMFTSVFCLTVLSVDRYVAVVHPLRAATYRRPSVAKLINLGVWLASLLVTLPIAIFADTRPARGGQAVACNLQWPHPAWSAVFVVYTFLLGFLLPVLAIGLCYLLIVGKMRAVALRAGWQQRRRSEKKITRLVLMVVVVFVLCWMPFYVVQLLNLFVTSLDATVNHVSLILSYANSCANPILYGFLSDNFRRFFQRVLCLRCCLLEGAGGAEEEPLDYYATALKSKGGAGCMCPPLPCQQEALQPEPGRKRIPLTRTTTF

SSTR5 = SSTR5 (Homo sapiens, UniProt P35346); test: SSTR receptor binding affinity (Ki), SSTR5; conditions: read-out: SSTR Specificity Ki SSTR5
Sequence of SSTR5 (P35346 whole entry): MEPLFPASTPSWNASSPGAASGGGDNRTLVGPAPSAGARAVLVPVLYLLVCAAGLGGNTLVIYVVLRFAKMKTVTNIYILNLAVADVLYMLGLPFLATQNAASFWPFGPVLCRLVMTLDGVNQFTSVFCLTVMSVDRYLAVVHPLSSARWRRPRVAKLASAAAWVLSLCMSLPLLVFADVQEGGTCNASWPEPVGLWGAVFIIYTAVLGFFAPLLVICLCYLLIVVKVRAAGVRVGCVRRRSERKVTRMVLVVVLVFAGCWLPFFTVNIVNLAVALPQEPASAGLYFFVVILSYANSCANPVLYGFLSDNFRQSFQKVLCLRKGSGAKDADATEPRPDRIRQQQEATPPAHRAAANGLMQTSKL

[1] = system: medullary thyroid carcinoma primary cultures; test: Calcitonin secretion by MTC primary cultures (IRMA); type: cell-based, human; conditions: 10^−8 M, six hours
[2] = system: medullary thyroid carcinoma primary cultures; test: Cell viability of MTC primary cultures (MTT); type: cell-based, human; conditions: 10^−8 M, forty-eight hours
[3] = MTC primary culture #1 (non responder)
[4] = MTC primary culture #2 (non responder)
[5] = MTC primary culture #3 (responder)
[6] = MTC primary culture #4 (non responder)
[7] = MTC primary culture #5 (responder)
[8] = MTC primary culture #6 (responder)
[9] = MTC primary culture #7 (responder)
[10] = MTC primary culture #8 (non responder)
[11] = MTC primary culture #9 (non responder)
[12] = MTC primary culture #10 (non responder)
[13] = MTC primary culture #11 (responder)
[14] = MTC primary culture #12 (responder)
[15] = MTC primary culture #13 (responder)
[16] = MTC primary culture #14 (responder)
[17] = MTC primary culture #15 (responder)
[18] = MTC primary culture #16 (responder)
[19] = MTC primary culture #17 (non responder)
[20] = MTC primary culture #18 (non responder)
[21] = group B (lanreotide non-responsive) mean

Sequence of SSTR1 (P30872 whole entry): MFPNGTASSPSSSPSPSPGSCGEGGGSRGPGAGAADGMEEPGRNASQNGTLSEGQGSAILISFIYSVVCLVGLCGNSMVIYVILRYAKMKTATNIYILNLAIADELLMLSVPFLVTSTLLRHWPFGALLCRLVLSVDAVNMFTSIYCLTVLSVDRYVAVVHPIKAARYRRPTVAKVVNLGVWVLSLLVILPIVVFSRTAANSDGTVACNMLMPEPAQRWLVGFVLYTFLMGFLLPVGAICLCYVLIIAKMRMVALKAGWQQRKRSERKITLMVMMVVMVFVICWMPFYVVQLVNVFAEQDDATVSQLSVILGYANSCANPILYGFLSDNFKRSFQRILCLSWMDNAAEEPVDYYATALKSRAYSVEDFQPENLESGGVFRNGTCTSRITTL

## CC[C@@H]1NC(=O)[C@H](CCCCN)NC(=O)[C@@H](Cc2c[nH]c3ccccc23)NC(=O)[C@H](Cc2ccc(O)cc2)NC(=O)[C@@H]2Cc3ccccc3CN2C(=O)[C@H](Cc2ccccc2)NC1=O [Cmpd #2, c[Tic-Tyr-D-Trp-Lys-Abu-Phe]] (cyclo([Tic]Y[dW]K[Abu]F))
SSTR1
  pKi: 6.00
SSTR2
  pKi: 9.47
SSTR3
  pKi: 6.39
SSTR4
  pKi: 6.00
SSTR5
  pKi: 6.67
[1]; [3]
  % CT secretion inhibition vs. control: −6.1%
[1]; [4]
  % CT secretion inhibition vs. control: −4.3%
[1]; [5]
  % CT secretion inhibition vs. control: −36.0%
[1]; [6]
  % CT secretion inhibition vs. control: 8.9%
[1]; [7]
  % CT secretion inhibition vs. control: −8.6%
[1]; [8]
  % CT secretion inhibition vs. control: −5.7%
[1]; [9]
  % CT secretion inhibition vs. control: −51.3%
[1]; [10]
  % CT secretion inhibition vs. control: −2.6%
[1]; [11]
  % CT secretion inhibition vs. control: 6.7%
[1]; [12]
  % CT secretion inhibition vs. control: 11.6%
[1]; [13]
  % CT secretion inhibition vs. control: 10.3%
[1]; [14]
  % CT secretion inhibition vs. control: −12.4%
[1]; [15]
  % CT secretion inhibition vs. control: −48.6%
[1]; [16]
  % CT secretion inhibition vs. control: 1.6%
[1]; [17]
  % CT secretion inhibition vs. control: −22.9%
[1]; [18]
  % CT secretion inhibition vs. control: −31.7%
[1]; [19]
  % CT secretion inhibition vs. control: −2.6%
[1]; [20]
  % CT secretion inhibition vs. control: −1.5%
[1]; group A (lanreotide responsive) mean
  calcitonin secretion, change vs. control (signed, negative = reduced): −23%
[1]; [21]
  calcitonin secretion, change vs. control (signed, negative = reduced): not reduced
[2]; [3]
  % cell viability reduction vs. control: −5.0%
[2]; [4]
  % cell viability reduction vs. control: −56.4%
[2]; [5]
  % cell viability reduction vs. control: −3.2%
[2]; [6]
  % cell viability reduction vs. control: −17.9%
[2]; [7]
  % cell viability reduction vs. control: −8.6%
[2]; [8]
  % cell viability reduction vs. control: 3.2%
[2]; [9]
  % cell viability reduction vs. control: 54.4%
[2]; [10]
  % cell viability reduction vs. control: −15.3%
[2]; [11]
  % cell viability reduction vs. control: −8.8%
[2]; [12]
  % cell viability reduction vs. control: 12.1%
[2]; [13]
  % cell viability reduction vs. control: −0.4%
[2]; [14]
  % cell viability reduction vs. control: 15.8%
[2]; [15]
  % cell viability reduction vs. control: −5.3%
[2]; [16]
  % cell viability reduction vs. control: 8.2%
[2]; [17]
  % cell viability reduction vs. control: 5.6%
[2]; [18]
  % cell viability reduction vs. control: −3.0%
[2]; [19]
  % cell viability reduction vs. control: −10.3%
[2]; [20]
  % cell viability reduction vs. control: −20.6%
[2]; [21]
  cell viability, change vs. control (signed, negative = reduced): −13%
